Test results published in PMC8708821, “Comprehensive Analysis and Biological Characterization of Venom Components from Solitary Scoliid Wasp Campsomeriella annulata annulata” (Toxins, 2021).
Where two headings read alike, the source gives them in different places. Marks after values point to notes of the source that are not given here. No end group written: not given here.

Key:
Vero cells = test: Toxicity on cell integrity, crystal violet, Vero cells; format: cell-based, Cercopithecus aethiops (African green monkey); details: for cytotoxicity in Vero cells: 0.1, 1 and 10 μmol·L−1, 1, 6, 24 and 48 h, vs untreated cells, n = 3 in triplicate
Procedure: (§1) The cytotoxic effects of α-campsomerin and β-campsomerin were determined by the staining of attached cells with crystal violet dye, according to the literature. In a 96-well plate (Nest Biotechnology, Rahway, USA), PC12 and Vero cells were put at 2.0 × 10^4 and 1.0 × 10^4 cells/well, respectively. Cells were treated with different concentrations (0.1 to 10 µmol·L^−1) of peptides in 0.10 mL. The plate was incubated for 1, 6, 24, and 48 h at 37 °C. There were control and DMSO groups for each concentration and time course tested, representing untreated cells (just one equal volume of culture medium) and cells treated with DMSO (5%; v/v) diluted in the medium culture, respectively. The media was then aspirated, and the cells were stained with a 0.5 percent crystal violet staining solution (0.5%; m/v), washed, and air-dried. Afterwards, methanol (200 μL) was added, and the absorbance measured at 570 nm using a SpectraMax reader (Molecular Devices, CA, USA). Data were obtained from three independent experiments in triplicate, and were expressed by percentage of cell viability, calculated using the control group as 100% of integrity.

PC12 cells [1] = test: Toxicity on cell integrity, crystal violet, PC12 cells; format: cell-based, rat
Procedure: as §1

PC12 cells [2] = test: Neuroprotective assay against H2O2-induced oxidative stress; format: cell-based, rat
Procedure: Initially, PC12 cells were seeded at 2 × 10^4 cells/well in a 96-well plate (Nest Biotechnology, Rahway, NJ, USA) for 24 h. To evaluate the neuroprotective effects of peptides, cells were pre-treated at 37 °C with α-campsomerin and β-campsomerin (0.1 to 20 µmol·L^−1), diluted in DMEM medium supplemented with antibiotics without fetal bovine serum for 4 h. […] Cells untreated with H2O2 represent control group in all experiments. Next, all groups were analyzed by the cell integrity.

[3] = target: T1, AChE from Electrophorus electricus (electric eel) Type VI-S (Electrophorus electricus, UniProt O42275); test: AChE activity, Ellman's technique; format: biochemical; details: positive control; mean ± SD, three independent experiments in triplicate
T1 construct: purchased Sigma-Aldrich Type VI-S
T1 sequence (O42275 24-633): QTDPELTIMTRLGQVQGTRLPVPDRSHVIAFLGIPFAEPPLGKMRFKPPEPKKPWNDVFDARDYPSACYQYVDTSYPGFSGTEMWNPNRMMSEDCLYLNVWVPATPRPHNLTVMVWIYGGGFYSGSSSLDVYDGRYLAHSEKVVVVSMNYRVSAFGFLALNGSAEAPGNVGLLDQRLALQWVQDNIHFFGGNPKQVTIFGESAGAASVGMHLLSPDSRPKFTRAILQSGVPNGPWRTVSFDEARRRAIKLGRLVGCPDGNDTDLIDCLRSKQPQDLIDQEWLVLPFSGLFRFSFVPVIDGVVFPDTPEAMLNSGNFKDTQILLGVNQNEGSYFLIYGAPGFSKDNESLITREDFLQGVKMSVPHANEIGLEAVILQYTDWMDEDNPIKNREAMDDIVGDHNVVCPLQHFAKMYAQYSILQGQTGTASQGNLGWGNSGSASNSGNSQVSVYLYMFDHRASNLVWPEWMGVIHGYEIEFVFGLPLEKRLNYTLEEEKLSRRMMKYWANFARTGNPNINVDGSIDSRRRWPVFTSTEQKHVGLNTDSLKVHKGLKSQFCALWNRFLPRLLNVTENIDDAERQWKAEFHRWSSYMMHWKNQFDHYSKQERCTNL
Procedure: The AChE activity was evaluated spectrophotometrically using Ellman’s technique, as previously reported by Harry et al., with slight modifications. Both peptides (20 μL) at varied concentrations (20, 10, 5, 1, and 0.1 µmol·L^−1), 10 μL of AChE (0.5 U·mL^−1) (Sigma, St. Louis, MO, USA) and 160 μL of 5,5-dithiobis-2-nitrobenzoic acid (DTNB, Ellman’s reagent) 0.33 mM (Sigma, St. Louis, MO, USA) in phosphate buffer (0.1 mo·L^−1, pH 8.0) were placed in triplicate in a microplate, and incubated at room temperature for 10 min after adding 10 μL of acetylthiocholine iodide (20 mmol·L^−1) (Sigma, St. Louis, MO, USA). The hydrolysis of acetylthiocholine iodide leads to production of acetic acid and thiocholine, which reacts with DTNB producing the anion 5-thio-2-nitrobenzoic acid, which was monitored at 412 nm during 20 min in microplate reader (BioTek Instruments, Inc., Winooski, VT, USA. Tetraethyl pyrophosphate (TEPP; Sigma, St. Louis, MO, USA) was used as a positive control. IAChE = [(Ac − As)/Ac] × 100, where Ac = absorbance for the control and As = absorbance for the sample was used to compute the percentage of inhibition (I) of AChE.

neuronal cell lines = details: previous study; neuronal cell integrity and mitochondrial metabolism; ref [28]; cited from earlier work
Excerpt: The venom of solitary wasps is a rich source of neuroactive chemicals, including bradykinin-related peptides, which disrupt the synaptic transmission of the nAChR in the central nervous system of prey. Our group has studied the neuroprotective effects of natural peptides from solitary wasp venoms against the H2O2-induced oxidative stress in neuronal cell lines after different treatments for acute and chronic conditions.. This cell model, which promotes excessive ROS generation, with consequent neurotoxic effects, represents typical characte ...

Hemolytic activity = format: cell-based
Procedure: (§2) Antimicrobial, hemolytic, and histamine-releasing activities were measured as described previously. The microbial species used in this study were: Escherichia coli (NBRC 14237), Staphylococcus aureus (NBRC 12732), and Saccharomyces cerevisiae (NBRC 10217), which were purchased from the Biological Resource Center (BRC, Kisarazu, Japan), National Institute of Technology and Evaluation. The pI of peptides was calculated with IPC (http://isoelectric.org/index.html, accessed on 8 November 2021). The physicochemical properties were examined using HeliQuest (http://heliquest.ipmc.cnrs.fr/, accessed on 8 November 2021).

[4] = tested on: Saccharomyces cerevisiae (NBRC 10217); test: Antimicrobial activity (MIC), S. cerevisiae; format: cell-based
Procedure: as §2

[5] = tested on: Staphylococcus aureus (NBRC 12732); test: Antimicrobial activity (MIC), S. aureus; format: cell-based
Procedure: as §2

mast cells [6] = test: Histamine-releasing activity; format: cell-based
Procedure: as §2

[7] = tested on: Escherichia coli (NBRC 14237); test: Antimicrobial activity (MIC), E. coli; format: cell-based
Procedure: as §2

[8] = ref Shigeri et al. [34]; cited from earlier work
Excerpt: Table 10 Antimicrobial, hemolytic, and histamine-releasing activities of annulatin and related peptides. | column: Hemolytic Activity (%) / at 10 μmol·L^−1

mast cells [9] = details: ref Shigeri et al. [34]; cited from earlier work
Excerpt: Table 10 Antimicrobial, hemolytic, and histamine-releasing activities of annulatin and related peptides. | column: Histamine Releasing Activity at 10 μmol·L^−1 (%)

human neprilysin (NEP) = human neprilysin (NEP) (Homo sapiens, UniProt P08473); test: NEP catalytic activity inhibition (FRET substrate); format: biochemical; details: peptide 20, 30 and 50 μmol·L−1; FRET substrate Abz-RGFK(Dnp)-OH 2, 4, 8 μmol·L−1; Tris HCl 50 mmol·L−1 pH 7.5; 37 °C; 15 min; triplicate
Chain of human neprilysin (NEP) (P08473 whole entry): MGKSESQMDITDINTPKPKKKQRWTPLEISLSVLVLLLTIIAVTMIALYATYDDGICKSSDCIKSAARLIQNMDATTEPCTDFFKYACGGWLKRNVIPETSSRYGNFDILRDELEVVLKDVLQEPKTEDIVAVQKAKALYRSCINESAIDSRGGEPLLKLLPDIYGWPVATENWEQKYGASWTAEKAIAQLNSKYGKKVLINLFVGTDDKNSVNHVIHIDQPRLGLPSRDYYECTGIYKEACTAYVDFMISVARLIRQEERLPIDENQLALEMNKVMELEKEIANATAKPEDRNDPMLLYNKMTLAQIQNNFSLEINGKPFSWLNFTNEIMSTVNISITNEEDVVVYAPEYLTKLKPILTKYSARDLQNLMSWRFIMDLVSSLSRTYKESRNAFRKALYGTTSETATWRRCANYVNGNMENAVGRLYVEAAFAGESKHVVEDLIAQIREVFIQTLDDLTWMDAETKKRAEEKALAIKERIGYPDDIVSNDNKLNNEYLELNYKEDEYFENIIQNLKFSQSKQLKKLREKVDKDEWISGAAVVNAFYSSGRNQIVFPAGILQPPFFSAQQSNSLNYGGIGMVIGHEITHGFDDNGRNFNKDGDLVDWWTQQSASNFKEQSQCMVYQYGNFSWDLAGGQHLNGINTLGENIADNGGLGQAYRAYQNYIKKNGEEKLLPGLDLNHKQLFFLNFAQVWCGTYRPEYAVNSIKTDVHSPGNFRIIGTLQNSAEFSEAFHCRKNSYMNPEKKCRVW
Procedure: (§3) Experiments were performed using different concentrations of α-campsomerin and β-campsomerin with ACE and NEP, and their FRET substrates, FRK(Dnp)P-OH and Abz-RGFK (Dnp)-OH, respectively. The assays used 7.5 ng of both peptidases and the substrates were added in a 100 mmol·L^−1 Tris-HCl buffer containing 50 mmol·L^−1 NaCl, 10 μmol·L^−1 ZnCl2, pH 7.0 (for ACE assays) and Tris HCl 50 mmol·L^−1, pH 7.5 buffer (for NEP assays). All experiments were carried out at 37 °C and at a final volume of 100 µL Three FRETs substrate concentrations were used (2 μmol·L^−1, 4 μmol·L^−1 and 8 μmol·L^−1), and were incubated with three concentrations of both peptides (20 μmol·L^−1, 30 μmol·L^−1 and 50 μmol·L^−1). Controls without the peptides were also performed in all assays. The reactions were monitored for 15 min on fluorimeter (Victor 3—Perkin–Elmer) and the results were analyzed on GraFit 3.0 from Erithacus Software. All assays were performed in triplicate.

neprilysin (NEP) = test: Stability test: cleavage of peptide by NEP; format: in vitro ADME; details: human, isolated human neprilysin (NEP); peptide 30 µmol·L−1 incubated four hours at 37 °C with NEP (7.5 n); RP-HPLC C-18, UV 214 nm
Procedure: (§4) Both peptides (30 µmol·L^−1) were incubated for four hours at 37 °C with ACE and NEP (7.5 n). As a negative control, samples containing only synthetic peptides were employed. After incubation, samples were analyzed on a Shim-pack VP-ODS C-18 column (4.6 150 mm) utilizing reverse-phase chromatography on HPLC (Prominence, Shimadzu). Solvent A was 0.1% TFA in water (solvent A), and solvent B was acetonitrile plus solvent A (9:1). Over a 20-min period, separations were carried out at a flow rate of 1 mL/min with a 10–60 percent gradient of solvent B. Elution was always followed by an assessment of UV absorption (214 nm).

ACE I = tested on: T2, ACE I; test: Stability test: cleavage of peptide by ACE; format: in vitro ADME; details: rabbit, isolated ACE I from rabbit lung; peptide 30 µmol·L−1 incubated four hours at 37 °C with ACE (7.5 n); RP-HPLC C-18, UV 214 nm
T2 construct: The ACE I from rabbit lung; purchased Sigma-Aldrich; host or cells: rabbit lung
Procedure: as §4

ACE I from rabbit lung = target: T3, ACE I from rabbit lung (Oryctolagus cuniculus, UniProt P12822); test: ACE catalytic activity inhibition (FRET substrate); format: biochemical; details: peptide 20, 30 and 50 μmol·L−1; FRET substrate Abz-FRK(Dnp)P-OH 2, 4, 8 μmol·L−1; 100 mmol·L−1 Tris-HCl, 50 mmol·L−1 NaCl, 10 μmol·L−1 ZnCl2, pH 7.0; 37 °C; 15 min; triplicate
T3 construct: The ACE I from rabbit lung; purchased Sigma-Aldrich; host or cells: rabbit lung
T3 sequence (P12822 34-1310): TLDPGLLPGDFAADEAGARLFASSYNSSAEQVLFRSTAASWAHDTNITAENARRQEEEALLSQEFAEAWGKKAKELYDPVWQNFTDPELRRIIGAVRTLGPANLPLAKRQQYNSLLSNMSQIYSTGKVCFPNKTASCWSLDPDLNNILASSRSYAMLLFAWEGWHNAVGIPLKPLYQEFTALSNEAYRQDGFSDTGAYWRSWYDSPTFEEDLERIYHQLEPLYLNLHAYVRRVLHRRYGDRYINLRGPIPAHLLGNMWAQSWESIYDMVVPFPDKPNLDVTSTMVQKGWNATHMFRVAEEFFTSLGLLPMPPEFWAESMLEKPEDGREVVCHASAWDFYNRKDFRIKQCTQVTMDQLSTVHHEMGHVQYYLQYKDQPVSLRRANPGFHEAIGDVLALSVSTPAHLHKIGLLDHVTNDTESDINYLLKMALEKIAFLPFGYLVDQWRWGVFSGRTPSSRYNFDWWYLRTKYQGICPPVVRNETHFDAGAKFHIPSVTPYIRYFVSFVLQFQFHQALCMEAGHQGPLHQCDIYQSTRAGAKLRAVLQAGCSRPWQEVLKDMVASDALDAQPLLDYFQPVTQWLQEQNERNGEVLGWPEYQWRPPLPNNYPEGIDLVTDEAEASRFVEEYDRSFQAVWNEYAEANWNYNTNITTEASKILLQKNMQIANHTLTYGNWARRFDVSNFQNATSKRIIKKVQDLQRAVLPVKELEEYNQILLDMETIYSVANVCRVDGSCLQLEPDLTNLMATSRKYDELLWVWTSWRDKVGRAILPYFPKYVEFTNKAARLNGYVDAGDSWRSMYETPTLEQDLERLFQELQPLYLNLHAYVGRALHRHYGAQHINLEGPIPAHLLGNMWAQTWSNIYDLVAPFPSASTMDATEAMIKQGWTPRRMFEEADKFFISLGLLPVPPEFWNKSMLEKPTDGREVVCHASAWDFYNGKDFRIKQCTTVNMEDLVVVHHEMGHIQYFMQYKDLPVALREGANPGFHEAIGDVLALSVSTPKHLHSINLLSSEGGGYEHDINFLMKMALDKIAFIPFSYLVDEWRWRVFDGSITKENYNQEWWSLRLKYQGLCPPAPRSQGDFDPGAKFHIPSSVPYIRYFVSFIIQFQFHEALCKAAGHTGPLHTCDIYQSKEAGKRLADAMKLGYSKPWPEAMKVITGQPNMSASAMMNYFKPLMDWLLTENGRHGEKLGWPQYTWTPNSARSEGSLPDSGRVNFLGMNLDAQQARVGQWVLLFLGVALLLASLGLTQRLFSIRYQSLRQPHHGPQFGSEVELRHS
Procedure: as §3

[10] = DMSO 5% (v/v), after 6, 24 and 48 h, vs control group

## C[S+](C)[O-] [DMSO, reference compound]
Vero cells; [10]
  cell integrity in Vero cells, DMSO positive control: decreased cell integrity
PC12 cells [1]; [10]
  cell integrity in PC12 cells, DMSO positive control: decreased cell integrity

## OO [H2O2]
PC12 cells [2]; H2O2 0.5 mmol·L−1, 20 h of treatment
  reduction of PC12 cell integrity by H2O2: 60.5 ± 4.0%
PC12 cells [2]; tested 1–0.06 mmol·L−1, 20 h, dose-dependent
  H2O2 concentrations promoting PC12 cell death: greater than 0.3 mmol·L−1

## CCOP(=O)(OCC)OP(=O)(OCC)OCC [TEPP, tetraethyl pyrophosphate]
[3]
  AChE inhibition percentage: 76.20 ± 1.42%

## DYVTVKGFSPLRKA [β-scoliidine]
Neuronal cell lines
  neuroprotective effects against H2O2-induced neurotoxicity in prolonged therapy: showed neuroprotective effects

## ISEALKSIIVG-NH2 [Annulatin]
Hemolytic activity
  Hemolytic Activity (%) at 12.5 μmol·L−1: 15.4%
[4]
  MIC S. cerevisiae (NBRC 10217): Negative
[5]
  MIC S. aureus (NBRC 12732): Negative
Mast cells [6]
  Histamine Releasing Activity at 10 μmol·L−1 (%): 33.0%
[7]
  MIC E. coli (NBRC 14237): Negative

## Mastoparan
[8]
  Hemolytic Activity (%) at 10 μmol·L−1: 13.5 ^b %
Mast cells [9]
  Histamine Releasing Activity at 10 μmol·L−1 (%): 31.1 ^b %

## Melittin: honeybee hemolytic peptide
[8]
  Hemolytic Activity (%) at 10 μmol·L−1: 100.0 ^b %
Mast cells [9]
  Histamine Releasing Activity at 10 μmol·L−1 (%): 64.3 ^b %

## PRLRRLTGLSPLR [α-campsomerin]
Vero cells
  cytotoxicity in Vero cells: no significant cytotoxicity
Human neprilysin (NEP)
  Inhibition (%) NEP: <0.01%
Neprilysin (NEP)
  metabolised at 4 h, 30 µmol·L−1: < 0.01%
ACE I
  metabolised at 4 h, 30 µmol·L−1: < 0.01%
ACE I from rabbit lung
  Inhibition (%) ACE: <0.01%
PC12 cells [1]; all concentrations tested (0.1, 1, 10 μmol·L−1), 6 h
  PC12 cell integrity after 6 h of treatment: reduced cell integrity

## PRLRRLTGLSPLRAP [β-campsomerin]
Vero cells
  cytotoxicity in Vero cells: no significant cytotoxicity
Human neprilysin (NEP)
  Inhibition (%) NEP: <0.01%
Neprilysin (NEP)
  metabolised at 4 h, 30 µmol·L−1: < 0.01%
ACE I
  metabolised at 4 h, 30 µmol·L−1: < 0.01%
ACE I from rabbit lung
  Inhibition (%) ACE: <0.01%
PC12 cells [1]; 0.1 to 10 µmol·L−1, up to 48 h
  toxicity in PC12 cells under the conditions tested (discussion): not toxic
